pIC50: −log10 of the molar value.
How the values were obtained:
physchem = conditions: octanol/water
Rattus norvegicus [1] = organism: Rattus norvegicus; assay: animal or person; type: functional; conditions: po
Rattus norvegicus [2] = organism: Rattus norvegicus; type: functional, Stomach
[3] = target: Prostaglandin G/H synthase 1 (Homo sapiens, UniProt P23219)
Rattus norvegicus [4] = organism: Rattus norvegicus; assay: animal or person; conditions: po, read-out: Inhibition

Prostaglandin G/H synthase 1, sequence (P23219 whole entry): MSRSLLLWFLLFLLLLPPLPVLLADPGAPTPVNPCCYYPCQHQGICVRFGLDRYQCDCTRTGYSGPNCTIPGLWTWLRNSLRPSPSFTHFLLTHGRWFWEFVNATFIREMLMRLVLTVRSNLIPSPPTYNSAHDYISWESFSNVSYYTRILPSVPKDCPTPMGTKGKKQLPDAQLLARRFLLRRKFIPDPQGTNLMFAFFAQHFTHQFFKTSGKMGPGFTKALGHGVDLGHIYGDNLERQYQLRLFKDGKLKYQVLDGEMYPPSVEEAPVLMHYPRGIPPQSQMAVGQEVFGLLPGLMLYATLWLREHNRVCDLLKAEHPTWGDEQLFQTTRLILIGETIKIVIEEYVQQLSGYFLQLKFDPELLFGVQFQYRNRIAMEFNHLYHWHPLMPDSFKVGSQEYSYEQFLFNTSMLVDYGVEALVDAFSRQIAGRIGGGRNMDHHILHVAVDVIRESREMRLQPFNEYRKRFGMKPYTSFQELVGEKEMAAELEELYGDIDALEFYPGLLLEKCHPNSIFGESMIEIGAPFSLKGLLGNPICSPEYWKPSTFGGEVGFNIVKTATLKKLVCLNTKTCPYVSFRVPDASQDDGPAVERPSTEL

Row | Structure (SMILES) | logP (physchem) | inhibition in vivo at 30 mg/kg (Rattus norvegicus [1]) | further results
1 | NS(=O)(=O)c1ccc(C2=C(c3ccc(F)cc3)CC3(CCC3)C2)cc1 | 4.1 | 37% | –
2 | NS(=O)(=O)c1ccc(C2=C(c3ccc(F)cc3)CC3(CC3)C2)cc1 | 4 | 60% | Gastric lesions (Rattus norvegicus [2]): 10
3 | CS(=O)(=O)c1ccc(C2=C(c3ccc(F)cc3)CC3(CCCC3)C2)cc1 | 5.4 | – | –
4 | CS(=O)(=O)c1ccc(C2=C(c3ccc(F)cc3)CC3(CCCCC3)C2)cc1 | – | – | pIC50 [3]: < 4.00
5 | CC1(C)CC(c2ccc(F)cc2)=C(c2ccc(S(C)(=O)=O)cc2)C1 | – | – | inhibition in vivo at 30 mg/kg (Rattus norvegicus [4]): 50%
6 | CS(=O)(=O)c1ccc(C2=C(c3ccc(F)cc3)CC3(CCC3)C2)cc1 | 4.9 | 23% | –
7 | CS(=O)(=O)c1ccc(C2=C(c3ccc(F)cc3)CC3(CC3)C2)cc1 | 4.5 | 38% | pIC50 [3]: 5.27
8 | COc1ccc2c(c1)c(CC(=O)O)c(C)n2C(=O)c1ccc(Cl)cc1 [INDOMETHACIN] | – | 66% | –
9 | CS(=O)(=O)Nc1ccc([N+](=O)[O-])cc1OC1CCCCC1 [NS-398] | – | 60% | –
